The source made the active and inactive calls. The rule behind the calls is not given here.
Experiments:
K562 = assay: Cytotoxicity against human K562 cells assessed as growth inhibition after 24 hrs by MTT assay; assay type: functional, cell-based; details: K562, 24 h
MDA-MB-231 = assay: Induction of apoptosis in human MDA231 assessed as increase in caspase-3 activity at 120 uM incubated for 48 hrs followed by DEVD-pNA substrate addition by caspase-3 colorimetric assay; assay type: functional
HCT-116 = assay: Induction of apoptosis in human HCT116 assessed as increase in caspase-3 activity at 120 uM incubated for 48 hrs followed by DEVD-pNA substrate addition by caspase-3 colorimetric assay; assay type: functional

SMILES | IC50 (K562) | Activity (MDA-MB-231) | Activity (HCT-116)
O=C(c1ccccc1)c1ccc(NC(=O)c2cc3ccccc3[nH]2)cc1 | > 100 µM |  | 
O=C(Nc1ccc(C(O)c2ccccc2)cc1)c1cc2ccccc2[nH]1 (stereo not given) | > 100 µM |  | 
O=C(Nc1cccc(C(O)c2ccccc2)c1)c1cc2ccccc2[nH]1 (stereo not given) | > 100 µM | Active | Active
CC(=O)c1cccc(NC(=O)c2cc3ccccc3[nH]2)c1 | > 100 µM |  | 
O=C(c1ccccc1)c1cccc(NC(=O)c2cc3ccccc3[nH]2)c1 | > 100 µM |  | 
CC(O)c1ccc(NC(=O)c2cc3ccccc3[nH]2)cc1 (stereo not given) | > 100 µM |  | 
CC(O)c1cccc(NC(=O)c2cc3ccccc3[nH]2)c1 (stereo not given) | > 100 µM |  | 
CC(=O)c1ccc(NC(=O)c2cc3ccccc3[nH]2)cc1 | > 100 µM |  | 

— ChEMBL document CHEMBL3797044, “Computer-aided design, synthesis, and biological evaluation of new indole-2-carboxamide derivatives as PI3Kα/EGFR inhibitors” (Bioorg Med Chem Lett, 2016)
